The text below walks through data of patent US8138159B2, “Composition for inhibiting function of human Flt3” (Takara Bio Inc., priority 2003, dated 2012).

Series [1] concerns MV4-11 (ITD mutation) cells. The series can be described thus: growth inhibition by siRNA3 in combination with kinase inhibitor AG1295, WST-1 (Example 4). The format is cell-based, human. The following applies: siRNA3 alone, 1.2 μM at electroporation, 0 μM AG1295, 72 hours. How it is done:
The growth inhibitory activity of treatment with a combination of the composition (synthesized siRNA3) of the present invention and a kinase inhibitor on MV4-11 (ITD mutation) cells was examined. The synthesized siRNA3 used was the same as in item (1) of Example 1 above. As the kinase inhibitor, AG1295 (manufactured by CALBIOCHEM) having high specificity to ITD mutation cells was used.
In the same manner as in item (2) of Example 1 above, MV4-11 cells were cultured at 37° C. for 24 hours in a medium obtained by supplementing 10% by volume fetal bovine serum (FBS) to an RPMI 1640 medium (manufactured by TAKARA BIO INC.) (referred to hereinafter as a culture medium) in the presence of 5% by volume CO2. Then, the MV4-11 cells (1×10^6 cells/ml) suspended in Opti-MEM (trade name, manufactured by Invitrogen) were transferred to a cuvette (manufactured by BIO RAD; gap of 4 mm), and siRNA3 was added to the cuvette so as to give a final concentration of 1.2 μM. Then, the cuvette was set in Gene Pulser Xcell (trade name, manufactured by BIO RAD) and thereafter pulsed with electric field intensity of 650 V/cm for 25 msec. Then, the suspension of the cells in the cuvette was added to, and suspended in, a 4-fold excess volume of the culture medium and dispensed onto a 96-well plate so as to give an amount of 100 μl/well. […]
4 mM AG1295 (dissolved in DMSO) was diluted with the above-mentioned culture medium to prepare AG1295 dilutions at a concentration of 10 μM, 6 μM and 0 μM (0.25% by volume DMSO) and added so as to give an amount of 100 μl/well to the 96-well plate prepared in step (2) above and cultured at 37° C. in the presence of 5% by volume CO2. Seventy-two hours after the culture was initiated, the growth activity of the cells was determined using Premix WST-1 reagent (trade name, manufactured by TAKARA BIO INC.) according to a manufacturer's protocol. Each experiment was carried out with n=6, and the mean was determined. The relative growth ratio (%) to the growth ability of the cells transfected with the control siRNA/0 μM AG1295 was determined. […]
(Tetrazolium dyes change colour on reduction, which living cells bring about.)

The test system of series [2] is Flt3 mRNA highly expressing cells. The experiment in a line: cell growth activity, Premix WST1 (Example 2), stated for highly expressing cells together. In kind it is cell-based, human. The note with it: regardless of presence or absence of ITD mutation, read-out: IC50 (50% inhibition concentration) of growth.

On to “siRNA3: siRNA to juxtamembrane region (Flt3/JMD region) (target SEQ ID NO: 7); sense SEQ ID NO: 8, antisense SEQ ID NO: 9 (sense UAUGAAUAUGAUCUCAAAUTT; antisense AUUUGAGAUCAUAUUCAUATT; chemistry not given here)”, for which the “growth inhibition as compared with the cells transfected with the control siRNA/0 μM AG1295” value in series [1] turned out to be 83.7%. Further, in series [2], the IC50 came to 10 nM.
